One test relates to normal plasma. The experiment in a line: Determination of prothrombin time (PT), mouse plasma. The class given is biochemical. The method, then:
Determination of prothrombin time (PT)
Blood was taken from mouse, rat, crab-eating monkey and healthy human volunteers, and citric acid was added. The blood was centrifuged at 4° C. and 2000 G for 15 min to obtain normal plasma of various animals.
Purified water (5 μl) containing various concentrations of test compound was added to plasma (45 μl) and the resultant mixtures were used as samples. […] (Baxter) was prepared and heated at […] for 5 min, and a sample (50 μl) was admixed with the thrombin reagent (100 μl). The time (PT) until precipitation of fibrin was measured. The drug concentration that doubled the PT hours of the drug untreated group was calculated and taken as CT2.

The target of the next test is T1, Human FXa (Homo sapiens, UniProt P00742).
T1 construct: Human FXa [Enzyme research Laboratories (USA)] enzyme; purchased Enzyme Research Laboratories (USA)
T1 sequence (P00742 235-488 limits assumed): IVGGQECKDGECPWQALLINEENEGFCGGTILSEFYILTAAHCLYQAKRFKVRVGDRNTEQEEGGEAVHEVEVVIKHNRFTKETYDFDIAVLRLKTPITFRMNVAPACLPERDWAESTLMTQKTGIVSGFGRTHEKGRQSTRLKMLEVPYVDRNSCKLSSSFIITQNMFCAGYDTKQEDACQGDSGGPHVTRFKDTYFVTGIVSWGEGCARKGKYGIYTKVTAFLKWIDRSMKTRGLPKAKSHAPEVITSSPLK
T1 sequence (P00742 41-179 limits assumed): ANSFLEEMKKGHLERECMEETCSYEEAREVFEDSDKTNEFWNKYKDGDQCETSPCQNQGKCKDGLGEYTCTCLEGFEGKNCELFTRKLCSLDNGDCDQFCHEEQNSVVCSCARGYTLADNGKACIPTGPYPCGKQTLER
The experiment in a line: Oral administration test in monkey, human FXa inhibitory activity in plasma. The class given is in vivo. The settings on record: crab-eating monkey, mean ± S.D., n = 3. The method, then:
Human FXa inhibitory activity was measured as follows. Human FXa [Enzyme research Laboratories (USA)] enzyme (40 μl, 0.5 U/ml) and a 4-fold diluted plasma sample (40 μl) were incubated in 0.1M Tris-0.2M NaCl buffer (pH 8.4) (40 μl) at 37° C. for 10 min. A synthetic substrate S-2222 (Daiichi Pure Chemical (Tokyo, Japan), 40 μl) adjusted to 0.8 mM was added and the mixture was incubated at 37° C. for 5 min. The reaction was stopped by addition of 60% acetic acid (40 μl) and absorbance at 405 nm was measured by Model 3550 (BIO-RAD). For the control, serum or plasma obtained prior to blood sampling was used for measurement. Human FXa inhibitory activity was calculated as inhibition percentage (%) against control.
Oral Administration Tests in Monkey
A test compound dissolved in distilled water was orally administered to monkey (carb-eating monkey, body weight 3.5-4.5 kg) and the activity of the test compound was evaluated based on the human FXa inhibitory activity in plasma as an indicator.
At 30, 60, 120, 240, 480 min from the oral administration, blood was taken from the saphenous vein with the passage of time and the blood was centrifuged at 2000 G for 10 min. The obtained citric acid plasma was used for the determination. Human FXa inhibitory activity was determined in the same manner as in the test by intravenous administration.

Structures can show the parent of a compound that is named as a salt.

For `CC(=N)N1CCC(Oc2ccc(N(Cc3nc4cc(C(=N)N)ccc4n3CC(=O)N[C@@H](C)c3ccccc3)C(=O)c3ccc(C(=O)O)cc3)cc2)CC1` [Example 17, (S)-4-[N-[5-Amidino-1-(1-phenylethylcarbamoylmethyl)benzimidazole-2-ylmethyl]-N-[4-(1-acetimidoylpiperidin-4-yloxy)phenyl]carbamoyl]benzoic Acid Dihydrochloride], the “CT2 (drug concentration that doubled the PT)” value with normal plasma came to 2 µM. For the same molecule, the inhibition at 10 mg/kg came out at 62 ± 53% against Human FXa (30 minutes); 62 ± 51% against Human FXa (60 minutes); 83 ± 13% against Human FXa (120 minutes); 68 ± 16% against Human FXa (240 minutes); 27 ± 10% against Human FXa (480 minutes).

Source of the values: patent US6562828B1, “Amidine compounds” (Japan Tobacco Inc., priority 1998, dated 2003).
